Reference: patent US9334238B2, “N-substituted pyridinylidenes for combating animal pests” (BASF SE, priority 2012, dated 2016)

Key:
Format in all cases: in vivo
[1] = system: green peach aphid (Myzus persicae); assay: Green peach aphid systemic test, artificial diet in 96-well microtiter plates; settings: 72 h, 2500 ppm in aphid diet, adult aphids, 3 days, read-out: mortality in comparison with untreated controls
From the text: B.1 Green Peach Aphid (Myzus persicae)
For evaluating control of green peach aphid (Myzus persicae) through systemic means, the test unit consisted of 96-well-microtiter plates containing liquid artificial diet under an artificial membrane.
The compounds were formulated using a solution containing 75% v/v water and 25% v/v DMSO. Different concentrations of formulated compounds were pipetted into the aphid diet, using a custom built pipetter, at two replications.
After application, 5-8 adult aphids were placed on the artificial membrane inside the microtiter plate wells. The aphids were then allowed to suck on the treated aphid diet and incubated at about 23±1° C. and about 50±5% relative humidity for 3 days. Aphid mortality and fecundity was then visually assessed.

[2] = system: Cowpea Aphid (Aphis craccivora); assay: Cowpea aphid test, sprayed potted cowpea plants; settings: 500 ppm spray on infested cowpea plants, after 72 hours, read-out: mortality in comparison with untreated controls
Protocol: B.2 Cowpea Aphid (Aphis craccivora)
The active compound was dissolved at the desired concentration in a mixture of 1:1 (vol:vol) distilled water: acetone. Surfactant (Alkamuls® EL 620) was added at a rate of 0.1% (vol/vol). The test solution was prepared at the day of use.
Potted cowpea plants were colonized with approximately 50-100 aphids of various stages by manually transferring a leaf tissue cut from infested plant 24 hours before application. Plants were sprayed after the pest population has been recorded. Treated plants were maintained on light carts at about 28° C. Percent mortality was assessed after 72 hours.

[3] = system: vetch aphid (Megoura viciae); assay: Vetch aphid contact/systemic test, broad bean leaf disks; settings: foliar, 120 h, 2500 ppm sprayed onto leaf disks, adult aphids, 5 days, read-out: mortality in comparison with untreated controls
Protocol: B.3 Vetch Aphid (Megoura viciae)
For evaluating control of vetch aphid (Megoura viciae) through contact or systemic means the test unit consisted of 24-well-microtiter plates containing broad bean leaf disks.
The compounds were formulated using a solution containing 75% v/v water and 25% v/v DMSO. Different concentrations of formulated compounds were sprayed onto the leaf disks at 2.5 μl, using a custom built micro atomizer, at two replications.
After application, the leaf disks were air-dried and 5-8 adult aphids placed on the leaf disks inside the microtiter plate wells. The aphids were then allowed to suck on the treated leaf disks and incubated at about 23±1° C. and about 50±5% relative humidity for 5 days. Aphid mortality and fecundity was then visually assessed.

[4] = system: Orchid thrips (dichromothrips corbetti); assay: Orchid thrips floral-immersion test; settings: orchid flowers dipped, adult thrips, 72 hours after treatment, read-out: mortality in comparison with untreated controls
Protocol: B.4 Orchid thrips (dichromothrips corbetti)
Dichromothrips corbetti adults used for bioassay were obtained from a colony maintained continuously under laboratory conditions. For testing purposes, the test compound was diluted in a 1:1 mixture of acetone:water (vol:vol), plus 0.01% vol/vol Alkamuls® EL 620 surfactant.
Thrips potency of each compound was evaluated by using a floral-immersion technique. Plastic petri dishes were used as test arenas. All petals of individual, intact orchid flowers were dipped into treatment solution and allowed to dry. Treated flowers were placed into individual petri dishes along with about 20 adult thrips. The petri dishes were then covered with lids. All test arenas were held under continuous light and a temperature of about 28° C. for duration of the assay. After 3 days, the numbers of live thrips were counted on each flower, and along inner walls of each petri dish. The percent mortality was recorded 72 hours after treatment.

[5] = system: Rice Green Leafhopper (Nephotettix virescens); assay: Rice green leafhopper test, sprayed rice seedlings; settings: 500 ppm spray on rice seedlings, adults, after 72 hours, read-out: mortality in comparison with untreated controls
Protocol: B.5 Rice Green Leafhopper (Nephotettix virescens)
Rice seedlings were cleaned and washed 24 hours before spraying. The active compounds were formulated in 50:50 acetone:water (vol:vol), and 0.1% vol/vol surfactant (EL 620) wss added. Potted rice seedlings were sprayed with 5 ml test solution, air dried, placed in cages and inoculated with 10 adults. Treated rice plants were kept at about 28-29° C. and relative humidity of about 50-60%. Percent mortality was recorded after 72 hours.

[6] = system: Rice Brown Plant Hopper (Nilaparvata lugens); assay: Rice brown plant hopper test, sprayed rice seedlings; settings: 500 ppm spray on rice seedlings, adults, after 72 hours, read-out: mortality in comparison with untreated controls
Protocol: B.6 Rice Brown Plant Hopper (Nilaparvata lugens)
Rice seedlings were cleaned and washed 24 hours before spraying. The active compounds was formulated in 50:50 acetone:water (vol:vol) and 0.1% vol/vol surfactant (EL 620) was added. Potted rice seedlings were sprayed with 5 ml test solution, air dried, placed in cages and inoculated with 10 adults. Treated rice plants were kept at about 28-29° C. and relative humidity of about 50-60%. Percent mortality was recorded after 72 hours.

[7] = system: Mediterranean fruitfly (Ceratitis capitata); assay: Mediterranean fruitfly test, insect diet with eggs in microtiter plates; settings: 120 h, 2500 ppm sprayed onto insect diet, egg and larval mortality, 5 days, read-out: mortality in comparison with untreated controls
Protocol: B.7 Mediterranean Fruitfly (Ceratitis capitata)
For evaluating control of Mediterranean fruitfly (Ceratitis capitata) the test unit consists of microtiter plates containing an insect diet and 50-80 C. capitata eggs.
The compounds were formulated using a solution containing 75% v/v water and 25% v/v DMSO. Different concentrations of formulated compounds were sprayed onto the insect diet at 5 μl, using a custom built micro atomizer, at two replications.
After application, microtiter plates were incubated at about 28±1° C. and about 80±5% relative humidity for 5 days. Egg and larval mortality was then visually assessed.

O=C(/C=C1\C=CC=CN1Cc1ccc(Cl)nc1)C(F)(F)F [E-1, (3E)-3-[1-[(6-chloro-3-pyridyl)methyl]-2-pyridylidene]-1,1,1-trifluoro-propan-2-one]
≥ 75%: mortality at 2500 ppm [1] | mortality at 500 ppm [2] | mortality at 2500 ppm [3] | mortality at 500 ppm [4] | mortality at 500 ppm [5] | mortality at 500 ppm [6] | mortality at 2500 ppm [7]
